Data on 10 molecules can be found in article PMC10046946, “Novel Phthalic-Based Anticancer Tyrosine Kinase Inhibitors: Design, Synthesis and Biological Activity” (Current Issues in Molecular Biology, 2023).

SMILES strings stand for the structures.

One data set relates to A549 (lung carcinoma). In words: MTT cell proliferation assay, A549. Type of data set: cell-based. The note with it: Homo sapiens, A549, 72 h of exposition, read-out: Anti-proliferative activity IC50, A549. On the procedure: (§1) Tests to determine the effects of the synthesized compounds on cell viability and the half-maximal inhibitory concentration (IC50) were performed using the MTT assay, as described in our prior work.
(§2) The target compounds 5, 6, 8–12, 14, 15, 17–22 and 24–26 were tested for antiproliferative activity against six cancer cell lines: K562 (chronic myelogenous leukemia), HL-60 (promyelocytic leukemia), MCF-7 (breast adenocarcinoma), HepG2 (human liver cancer), A549 (lung carcinoma) and OKP-GS (renal cell carcinoma). The RPMI 1788 cells (B lymphocyte, human) were used as a control to evaluate the system toxicity of the studied compounds to normal cells. Sorafenib, nilotinib and lapatinib were utilized as reference standards for comparison.
In general terms: Formazan colour is commonly taken as a measure of viable cells.

Data set [1] deals with RPMI 1788 cells (B lymphocyte, human). In words: MTT cell proliferation assay, normal RPMI 1788 cells. Type of data set: cell-based. The note with it: normal human lymphoblastoid cells RPMI 1788, 72 h of exposition, read-out: Anti-proliferative activity IC50, RPMI 1788. The procedure:
as §1, §2

Data set [2] relates to OKP-GS (renal cell carcinoma). In words: MTT cell proliferation assay, OKP-GS. Format: cell-based. The note with it: 72 h of exposition, read-out: Anti-proliferative activity IC50, OKP-GS. On the procedure:
as §1, §2

The test system of data set [3] is HL-60 (promyelocytic leukemia). Kind of data set: MTT cell proliferation assay, HL-60. Type of data set: cell-based. Conditions: Homo sapiens, HL-60, 72 h of exposition, read-out: Anti-proliferative activity IC50, HL-60. On the procedure:
as §1, §2

For data set [4], the system named is HepG2 (human liver cancer). In words: MTT cell proliferation assay, HepG2. Type of data set: cell-based. Conditions: Homo sapiens, HepG2, 72 h, HepG2, 72 h of exposition, read-out: Anti-proliferative activity IC50, HepG2. The procedure:
as §1, §2

Data set [5] concerns K562 (chronic myelogenous leukemia). In words: MTT cell proliferation assay, K562. The note with it: Homo sapiens, K562, 72 h of exposition, read-out: Anti-proliferative activity IC50, K562. Type of data set: cell-based. The procedure: as §1, §2
The test system of data set [6] is MCF-7 (breast adenocarcinoma). Kind of data set: MTT cell proliferation assay, MCF-7. Type of data set: cell-based. The note with it: Homo sapiens, MCF7, MCF-7, 72 h of exposition, read-out: Anti-proliferative activity IC50, MCF-7. The procedure: as §1, §2

In general, melting point refers to the temperature of the solid-liquid transition. The molecule `COc1ccc(C(=O)N2CCN(C(=O)c3cccc(C(=O)Nc4cc(-n5cnc(C)c5)cc(C(F)(F)F)c4)c3)CC2)cc1` [Compound 13, 3-(4-(4-Methoxybenzoyl)piperazine-1-carbonyl)-N-(3-(4-methyl-1H-imidazol-1-yl)-5-(trifluoromethyl)-phenyl)benzamide] yielded a melting point of 144 to 146 °C.

Turning to `CNC(=O)c1cc(Oc2ccc(NC(=O)c3ccc(C(=O)Nc4cc(-n5cnc(C)c5)cc(C(F)(F)F)c4)cc3)cc2)ccn1` [Compound 23, N1-(3-(4-methyl-1H-imidazol-1-yl)-5-(trifluoromethyl)phenyl)-N4-(4-((2-(methylcarbamoyl)pyridin-4-yl)oxy)phenyl)terephthalamide], the melting point fell in the range of 299 to 300 °C.

The term IC50 denotes the point on the concentration scale where inhibition reaches its midpoint. For `O=C(Nc1cccc(C(F)(F)F)c1)c1ccc(C(=O)N2CCN(C(=O)c3cccc(F)c3)CC2)cc1` [Compound 21, 4-(4-(3-Fluorobenzoyl)piperazine-1-carbonyl)-N-(3-(trifluoromethyl)phenyl)benzamide], the IC50 (with A549 (lung carcinoma); in data set [1]; in data set [2]; in data set [3]; in data set [4]; in data set [5]) was more than 50 µM throughout. In addition, in data set [6], the IC50 was more than 50 µM.

`O=C(Nc1cccc(C(F)(F)F)c1)c1ccc(C(=O)N2CCN(C(=O)c3ccccc3F)CC2)cc1` [Compound 20, 4-(4-(2-Fluorobenzoyl)piperazine-1-carbonyl)-N-(3-(trifluoromethyl)phenyl)benzamide]: the melting point lay within 215 to 217 °C. In addition, in the data set on A549 (lung carcinoma), the IC50 was more than 50 µM. Besides, the IC50 in data set [1] was more than 50 µM. Also, the IC50 in data set [2] was more than 50 µM. In data set [3], the IC50 was more than 50 µM. Moreover, in data set [4], the IC50 was more than 50 µM. The IC50 in data set [5] was more than 50 µM. Also, the IC50 in data set [6] is more than 50 µM.

As for `COc1ccc(C(=O)N2CCN(C(=O)c3ccc(C(=O)Nc4cc(-n5cnc(C)c5)cc(C(F)(F)F)c4)cc3)CC2)cc1` [Compound 25, 4-(4-(4-methoxybenzoyl)piperazine-1-carbonyl)-N-(3-(4-methyl-1H-imidazol-1-yl)-5-(trifluoromethyl)-phenyl)benzamide], the melting point was 212 to 214 °C.

As to `COc1ccc(C(=O)N2CCN(C(=O)c3cccc(C(=O)Nc4cccc(C(F)(F)F)c4)c3)CC2)cc1` [Compound 7, 3-(4-(4-Methoxybenzoyl)piperazine-1-carbonyl)-N-(3-(trifluoromethyl)phenyl)benzamide], the melting point was 72 to 74 °C.

For `Cc1cn(-c2cc(NC(=O)c3ccc(C(=O)N4CCN(C(=O)c5ccccc5F)CC4)cc3)cc(C(F)(F)F)c2)cn1` [Compound 26, 4-(4-(2-fluorobenzoyl)piperazine-1-carbonyl)-N-(3-(4-methyl-1H-imidazol-1-yl)-5-(trifluoromethyl)phenyl)-benzamide], the melting point was 142 to 145 °C. Further, in the data set with A549 (lung carcinoma), the IC50 is more than 50 µM. Moreover, the IC50 in data set [1] turned out to be 23.97 ± 0.03 µM. Besides, the IC50 in data set [2] is more than 50 µM. Moreover, in data set [3], the IC50 was determined as 26.4 ± 1.73 µM. Also, the IC50 in data set [4] was determined as 44.3 ± 4.79 µM. In addition, the IC50 in data set [5] turned out to be 18.5 ± 0.73 µM. Further, in data set [6], the IC50 amounted to 48.8 ± 1.17 µM.

As for `CNC(=O)c1cc(Oc2ccc(NC(=O)c3ccc(C(=O)Nc4cccc(C(F)(F)F)c4)cc3)cc2)ccn1` [Compound 18, N1-(4-((2-(methylcarbamoyl)pyridin-4-yl)oxy)phenyl)-N4-(3-(trifluoromethyl)phenyl)terephthalamide], the IC50 in the data set with A549 (lung carcinoma) was more than 50 µM; in data set [1] it was 46 ± 1.76 µM; in data set [2] it was 34.4 ± 2.52 µM; in data set [3] it was more than 50 µM; in data set [4] it was 45.9 ± 1.83 µM; in data set [5] it was 26.9 µM. The IC50 in data set [6] was more than 50 µM.

Regarding `Cc1cn(-c2cc(NC(=O)c3ccc(C(=O)Nc4cc(-n5cnc(C)c5)cc(C(F)(F)F)c4)cc3)cc(C(F)(F)F)c2)cn1` [Compound 22, N1,N4-bis(3-(4-methyl-1H-imidazol-1-yl)-5-(trifluoromethyl)phenyl)terephthalamide], the melting point was 295 to 296 °C. Besides, the IC50 in the data set on A549 (lung carcinoma) is more than 50 µM. For the same molecule, the IC50 in data set [1] is more than 50 µM. In addition, in data set [2], the half-maximal inhibitory concentration (IC50) is more than 50 µM. Moreover, in data set [3], the IC50 was more than 50 µM. The IC50 in data set [4] was more than 50 µM. The half-inhibitory concentration (IC50) in data set [5] was more than 50 µM. Further, in data set [6], the IC50 is more than 50 µM.

For the molecule `Cc1cn(-c2cc(NC(=O)c3ccc(C(=O)N4CCN(C(=O)c5cccc(F)c5)CC4)cc3)cc(C(F)(F)F)c2)cn1` [Compound 27, 4-(4-(3-fluorobenzoyl)piperazine-1-carbonyl)-N-(3-(4-methyl-1H-imidazol-1-yl)-5-(trifluoromethyl)phenyl)-benzamide], the melting point is 110 to 113 °C. In addition, the IC50 with A549 (lung carcinoma) was more than 50 µM. Besides, in data set [1], the IC50 was found to be 24.08 ± 0.07 µM. For the same molecule, the IC50 in data set [2] was more than 50 µM. Moreover, in data set [3], the IC50 worked out at 26 ± 4.15 µM. Besides, the IC50 in data set [4] came to 38.6 ± 1.11 µM. Moreover, the IC50 in data set [5] came to 22.2 ± 2.12 µM. For the same molecule, the IC50 in data set [6] is 49.4 ± 0.67 µM.
